The values below come from publication PMC11987006 (iScience, 2025).

Test [1] relates to WT N2 animal. The test can be described thus: salt chemotaxis learning with tyramine/octopamine, WT N2. Type of test: in vivo, C. elegans. The note with it: 10 μM TA or OA or both in conditioning solutions or test plate agar.
Test [2] has as its system WT N2 animal. The test can be described thus: salt chemotaxis with tyramine/octopamine, WT N2. It is filed as in vivo, C. elegans. Particulars: 10 μM TA or OA or both in conditioning solutions or test plate agar.

On to `NCC(O)c1ccc(O)cc1` (stereo not shown) [OA, octopamine], for which, in the test on WT N2 animal [1], the “effect on SCL (learning index)” value was “no obvious impact”. Besides, the “effect on salt chemotaxis” value in the test on WT N2 animal [2] is “no obvious impact”.
Turning to `NCCc1ccc(O)cc1` [TA, tyramine], the “effect on SCL (learning index)” value in the test on WT N2 animal [1] was “no obvious impact”. Also, the “effect on salt chemotaxis” value with WT N2 animal [2] is “no obvious impact”.
